From the NIST ThermoML archive (doi:10.1021/je060139a)
Where “and” joins values, the source holds several entries; their conditions need not be identical. Identical values can stand only once. ± gives the expanded uncertainty stated by the source.

How the values were obtained:
[1] = xn = mol fraction of the nth substance listed; conditions: Wilhelmy plate method, x2 = 0
[2] = refractive index (Na D-line) (dimensionless); xn = mol fraction of the nth substance listed; conditions: 100.5 kPa, Liquid, Standard Abbe refractometry, x2 = 0
[3] = for surface tension liquid-gas: Wilhelmy plate method; for mass density: 298.15 K, 101.33 kPa, Liquid
[4] = refractive index (Na D-line) (dimensionless); conditions: 101.33 kPa, Liquid, Standard Abbe refractometry

| SMILES | surface tension liquid-gas ([1]; 288.15 K) [mN/m] | surface tension liquid-gas ([1]; 298.18 K) [mN/m] | surface tension liquid-gas ([1]; 308.15 K) [mN/m] | surface tension liquid-gas ([1]; 318.15 K) [mN/m] | refractive index ([2]; 288.15 K) | refractive index ([2]; 298.18 K) | refractive index ([2]; 308.15 K) | refractive index ([2]; 318.15 K) | surface tension liquid-gas ([3]; 288.15 K) [mN/m] | mass density [3] [kg/m3] | surface tension liquid-gas ([3]; 298.18 K) [mN/m] | surface tension liquid-gas ([3]; 308.15 K) [mN/m] | surface tension liquid-gas ([3]; 318.15 K) [mN/m] | refractive index ([4]; 288.15 K) | refractive index ([4]; 298.18 K) | refractive index ([4]; 308.15 K) | refractive index ([4]; 318.15 K) |
| --- | --- | --- | --- | --- | --- | --- | --- | --- | --- | --- | --- | --- | --- | --- | --- | --- | --- |
| CCO [ethanol] + CCC(=O)OCc1ccccc1 | 23 ± 0.4 | 22.3 ± 0.4 | 21.5 ± 0.4 | 20.6 ± 0.4 | 1.36333 ± 0.00031 | 1.35941 ± 0.00031 | 1.35531 ± 0.00031 | 1.35148 ± 0.00031 |  |  |  |  |  |  |  |  |  |
| CC(=O)OCc1ccccc1 [benzyl ethanoate] |  |  |  |  |  |  |  |  | 37.7 ± 0.41 | 1050.75 ± 0.3 | 36.4 ± 0.41 | 35.3 ± 0.41 | 34.1 ± 0.41 | 1.50439 ± 0.00032 | 1.49982 ± 0.00032 | 1.49539 ± 0.00032 | 1.49064 ± 0.00032 |
| CCO [ethanol] + CCOC(=O)CC(C)=O | 23 ± 0.4 | 22.3 ± 0.4 | 21.5 ± 0.4 | 20.6 ± 0.4 | 1.3633 ± 0.0003 | 1.3594 ± 0.0003 | 1.3553 ± 0.0003 | 1.3515 ± 0.0003 |  |  |  |  |  |  |  |  |  |
| CCO [ethanol] |  |  |  |  |  |  |  |  | 23 ± 0.4 | 785 ± 0.24 | 22.3 ± 0.4 | 21.5 ± 0.4 | 20.6 ± 0.4 | 1.3633 ± 0.0003 and 1.36333 ± 0.00031 | 1.3594 ± 0.0003 and 1.35941 ± 0.00031 | 1.3553 ± 0.0003 and 1.35531 ± 0.00031 | 1.3515 ± 0.0003 and 1.35148 ± 0.00031 |
| CCO [ethanol] + CC(=O)OCc1ccccc1 | 23 ± 0.4 | 22.3 ± 0.4 | 21.5 ± 0.4 | 20.6 ± 0.4 | 1.36333 ± 0.00031 | 1.35941 ± 0.00031 | 1.35531 ± 0.00031 | 1.35148 ± 0.00031 |  |  |  |  |  |  |  |  |  |
| CCC(=O)OCc1ccccc1 [benzyl propanoate] |  |  |  |  |  |  |  |  | 36 ± 0.41 | 1027.6 ± 0.4 | 34.8 ± 0.41 | 33.6 ± 0.41 | 32.4 ± 0.41 | 1.4995 ± 0.00034 | 1.49498 ± 0.00034 | 1.49074 ± 0.00034 | 1.48611 ± 0.00034 |

Continued, values first:

| surface tension liquid-gas ([1]; 288.15 K) [mN/m] | surface tension liquid-gas ([1]; 298.18 K) [mN/m] | surface tension liquid-gas ([1]; 308.15 K) [mN/m] | surface tension liquid-gas ([1]; 318.15 K) [mN/m] | refractive index ([2]; 288.15 K) | refractive index ([2]; 298.18 K) | refractive index ([2]; 308.15 K) | refractive index ([2]; 318.15 K) | surface tension liquid-gas ([3]; 288.15 K) [mN/m] | mass density [3] [kg/m3] | surface tension liquid-gas ([3]; 298.18 K) [mN/m] | surface tension liquid-gas ([3]; 308.15 K) [mN/m] | surface tension liquid-gas ([3]; 318.15 K) [mN/m] | refractive index ([4]; 288.15 K) | refractive index ([4]; 298.18 K) | refractive index ([4]; 308.15 K) | refractive index ([4]; 318.15 K) | SMILES |
| --- | --- | --- | --- | --- | --- | --- | --- | --- | --- | --- | --- | --- | --- | --- | --- | --- | --- |
|  |  |  |  |  |  |  |  | 38.6 ± 0.43 | 1083.92 ± 0.68 | 37.2 ± 0.43 | 35.8 ± 0.43 | 34.8 ± 0.42 | 1.51915 ± 0.00035 | 1.51467 ± 0.00035 | 1.50993 ± 0.00035 | 1.50514 ± 0.00035 | COC(=O)c1ccccc1 [methyl benzoate] |
|  |  |  |  |  |  |  |  | 24.4 ± 0.42 | 859.78 ± 0.82 | 23.5 ± 0.42 | 22.45 ± 0.42 | 21.6 ± 0.41 | 1.3988 ± 0.00037 | 1.39401 ± 0.00037 | 1.38931 ± 0.00037 | 1.38458 ± 0.00037 | CCOC(=O)CC(C)C [ethyl 3-methylbutanoate] |
|  |  |  |  |  |  |  |  | 37.5 ± 0.41 | 1125 ± 0.4 | 36.3 ± 0.41 | 35.2 ± 0.41 | 34.4 ± 0.41 | 1.52481 ± 0.00032 | 1.52022 ± 0.00032 | 1.51573 ± 0.00032 | 1.51116 ± 0.00032 | CCOC(=O)c1ccccc1O [ethyl 2-hydroxybenzoate] |
| 23 ± 0.4 | 22.3 ± 0.4 | 21.5 ± 0.4 | 20.6 ± 0.4 | 1.36333 ± 0.00031 | 1.35941 ± 0.00031 | 1.35531 ± 0.00031 | 1.35148 ± 0.00031 |  |  |  |  |  |  |  |  |  | CCO [ethanol] + COC(=O)c1ccccc1 |
|  |  |  |  |  |  |  |  | 33.3 ± 0.42 | 1023.45 ± 0.52 | 32.3 ± 0.42 | 31.1 ± 0.42 | 30 ± 0.42 | 1.4209 ± 0.0004 | 1.4166 ± 0.0004 | 1.4125 ± 0.0004 | 1.408 ± 0.0004 | CCOC(=O)CC(C)=O [ethyl 3-oxobutanoate] |
| 23 ± 0.4 | 22.3 ± 0.4 | 21.5 ± 0.4 | 20.6 ± 0.4 | 1.36333 ± 0.00031 | 1.35941 ± 0.00031 | 1.35531 ± 0.00031 | 1.35148 ± 0.00031 |  |  |  |  |  |  |  |  |  | CCO [ethanol] + CCOC(=O)CC(C)C |
| 23 ± 0.4 | 22.3 ± 0.4 | 21.5 ± 0.4 | 20.6 ± 0.4 | 1.36333 ± 0.00031 | 1.35941 ± 0.00031 | 1.35531 ± 0.00031 | 1.35148 ± 0.00031 |  |  |  |  |  |  |  |  |  | CCO [ethanol] + CCOC(=O)c1ccccc1O |
